Reference: ChEMBL document CHEMBL1129128, “Synthesis of divalent -D-mannopyranosylated clusters having enhanced binding affinities towards concanavalin A and pea lectins” (Bioorg Med Chem Lett, 1996)

Key:
[1] = Inhibition of binding of concanavalin A to yeast mannan by compound was measured using peroxidase-labeled lectin assay,; design: species or system Saccharomyces cerevisiae
[2] = Inhibition of binding of pea lectins to yeast mannan by compound was measured using peroxidase-labeled lectin assay; design: species or system Saccharomyces cerevisiae
[3] = tested on: Saccharomyces cerevisiae; assay: Inhibition of binding of concanavalin A to yeast mannan by compound was measured using peroxidase-labeled lectin assay, expressed relative to 2-Hydroxymethyl-6-methoxy-tetrahydro-pyran-3,4,5-triol
[4] = tested on: Saccharomyces cerevisiae; assay: Inhibition of binding of pea lectins to yeast mannan by compound was measured using peroxidase-labeled lectin assay, activity expressed relative to 2-Hydroxymethyl-6-methoxy-tetrahydro-pyran-3,4,5-triol

SMILES | IC50 [1] [µM] | IC50 [2] [µM] | Relative potency [3] | Relative potency [4]
O=C(CCCCC/N=C(\S)Nc1ccc(O[C@H]2O[C@@H](CO)[C@@H](O)[C@H](O)[C@H]2O)cc1)Nc1cc(NC(=O)CCCCC/N=C(\S)Nc2ccc(O[C@H]3O[C@@H](CO)[C@@H](O)[C@H](O)[C@H]3O)cc2)cc(C(=O)O)c1 | 36.8 | 575 | 25 | 6.7
C=CCO[C@H]1O[C@@H](CO)[C@@H](O)[C@H](O)[C@H]1O | 261 | 940 | 3.5 | 4.1
CO[C@H]1O[C@H](CO)[C@@H](O)[C@H](O)[C@H]1O | 924 | 3850 | 1 | 1

More lines, in order of falling IC50 [1], values ahead:

IC50 [1] [µM] | IC50 [2] [µM] | Relative potency [3] | Relative potency [4] | SMILES
106 | > 1500 | 8.7 | 2.6 | O=[N+]([O-])c1ccc(O[C@H]2O[C@H](CO)[C@@H](O)[C@H](O)[C@H]2O)cc1
30.5 | 185 | 30.3 | 20.8 | O=C(O)c1cc(N/C(S)=N/CCSCCCO[C@H]2O[C@@H](CO)[C@@H](O)[C@H](O)[C@H]2O)cc(N/C(S)=N/CCSCCCO[C@H]2O[C@@H](CO)[C@@H](O)[C@H](O)[C@H]2O)c1
6.7 | 129 | 138 | 29.8 | COC(=O)c1cc(N/C(S)=N/CCSCCCO[C@H]2O[C@@H](CO)[C@@H](O)[C@H](O)[C@H]2O)cc(N/C(S)=N/CCSCCCO[C@H]2O[C@@H](CO)[C@@H](O)[C@H](O)[C@H]2O)c1
